{"source": "ChEMBL document CHEMBL1127439", "about": "“Structure-activity relationship studies of central nervous system agents. 13. 4-[3-(Benzotriazol-1-yl)propyl]-1-(2-methoxyphenyl)piperazine, a new putative 5-HT1A receptor antagonist, and its analogs” (J Med Chem, 1994)", "key": {"[1]": {"target": "T1, 5-hydroxytryptamine receptor 1A (Rattus norvegicus, UniProt P19327)", "T1 sequence (P19327 whole entry)": "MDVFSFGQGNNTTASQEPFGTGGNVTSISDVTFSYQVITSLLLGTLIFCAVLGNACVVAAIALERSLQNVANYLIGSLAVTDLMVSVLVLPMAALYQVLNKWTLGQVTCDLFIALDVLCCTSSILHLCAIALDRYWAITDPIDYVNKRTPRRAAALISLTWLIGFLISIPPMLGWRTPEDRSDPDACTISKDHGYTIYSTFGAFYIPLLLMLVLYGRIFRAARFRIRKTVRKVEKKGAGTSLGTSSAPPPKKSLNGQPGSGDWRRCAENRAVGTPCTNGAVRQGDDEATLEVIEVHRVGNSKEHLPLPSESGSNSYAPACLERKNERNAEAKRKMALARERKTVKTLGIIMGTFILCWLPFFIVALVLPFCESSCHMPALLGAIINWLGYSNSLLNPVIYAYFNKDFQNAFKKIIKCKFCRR", "assay": "Tested in vitro for receptor binding affinity against 5-hydroxytryptamine 1A receptor using radioligand [3H]8-OH-DPAT"}, "[2]": {"target": "Serotonin 2 (5-HT2) receptor (Rattus norvegicus, UniProt P30994+P08909+P14842)", "assay": "Tested in vitro for receptor binding affinity against 5-hydroxytryptamine 2 receptor using radioligand [3H]ketanserin", "type": "protein assay"}, "Mus musculus [3]": {"system": "Mus musculus", "assay": "Effect on 8-OH-DPAT-induced hypothermia in mice (5 mg/kg) at intraperitoneal dosage of 4 mg/kg of compound after 30 mins. Values expressed as +/- SEM", "type": "functional"}, "Mus musculus [4]": {"system": "Mus musculus", "assay": "Effect on 8-OH-DPAT-induced hypothermia in mice (5 mg/kg) at intraperitoneal dosage of 4 mg/kg of compound after 45 mins. Values expressed as +/- SEM", "type": "functional"}, "Mus musculus [5]": {"system": "Mus musculus", "assay": "Effect on 8-OH-DPAT-induced hypothermia in mice (5 mg/kg) at intraperitoneal dosage of 4 mg/kg of compound after 60 mins. Values expressed as +/- SEM", "type": "functional"}, "Mus musculus [6]": {"system": "Mus musculus", "assay": "Effect on 8-OH-DPAT-induced hypothermia in mice (5 mg/kg) at intraperitoneal dosage of 8 mg/kg of compound after 15 mins. Values expressed as +/- SEM", "type": "functional"}, "Mus musculus [7]": {"system": "Mus musculus", "assay": "Effect on 8-OH-DPAT-induced hypothermia in mice (5 mg/kg) at intraperitoneal dosage of 8 mg/kg of compound after 30 mins. Values expressed as +/- SEM", "type": "functional"}, "Mus musculus [8]": {"system": "Mus musculus", "assay": "Effect on 8-OH-DPAT-induced hypothermia in mice (5 mg/kg) at intraperitoneal dosage of 8 mg/kg of compound after 45 mins. Values expressed as +/- SEM", "type": "functional"}, "Mus musculus [9]": {"system": "Mus musculus", "assay": "Effect on 8-OH-DPAT-induced hypothermia in mice (5 mg/kg) at intraperitoneal dosage of 8 mg/kg of compound after 60 mins", "type": "functional"}, "Mus musculus [10]": {"system": "Mus musculus", "assay": "Effect on 8-OH-DPAT-induced hypothermia in mice (5 mg/kg) at intraperitoneal dosage of 16 mg/kg of compound after 15 mins", "type": "functional"}, "Mus musculus [11]": {"system": "Mus musculus", "assay": "Effect on 8-OH-DPAT-induced hypothermia in mice (5 mg/kg) at intraperitoneal dosage of 16 mg/kg of compound after 30 mins", "type": "functional"}, "Mus musculus [12]": {"system": "Mus musculus", "assay": "Effect on 8-OH-DPAT-induced hypothermia in mice (5 mg/kg) at intraperitoneal dosage of 16 mg/kg of compound after 45 mins", "type": "functional"}, "Mus musculus [13]": {"system": "Mus musculus", "assay": "Effect on 8-OH-DPAT-induced hypothermia in mice (5 mg/kg) at intraperitoneal dosage of 16 mg/kg of compound after 60 mins", "type": "functional"}, "Mus musculus [14]": {"system": "Mus musculus", "assay": "Effect on 8-OH-DPAT-induced hypothermia in mice (5 mg/kg) at intraperitoneal dosage of 4 mg/kg of compound after 15 mins. Values expressed as +/- SEM", "type": "functional"}, "Rattus norvegicus [15]": {"system": "Rattus norvegicus", "assay": "Tested for the effect on 8-OH-DPAT-induced behavior in reserpine pretreated rat against flat body posture at dosage of 16 mg/kg", "type": "functional"}, "Rattus norvegicus [16]": {"system": "Rattus norvegicus", "assay": "Tested for the effect on 8-OH-DPAT-induced behavior in reserpine pretreated rat against flat body posture at dosage of 4 mg/kg", "type": "functional"}, "Rattus norvegicus [17]": {"system": "Rattus norvegicus", "assay": "Tested for the effect on 8-OH-DPAT-induced behavior in reserpine pretreated rat against flat body posture at dosage of 8 mg/kg", "type": "functional"}, "Rattus norvegicus [18]": {"system": "Rattus norvegicus", "assay": "Tested for the effect on 8-OH-DPAT-induced behavior in reserpine pretreated rat against forepaw treading at dosage of 16 mg/kg", "type": "functional"}, "Rattus norvegicus [19]": {"system": "Rattus norvegicus", "assay": "Tested for the effect on 8-OH-DPAT-induced behavior in reserpine pretreated rat against forepaw treading at dosage of 8 mg/kg", "type": "functional"}, "Rattus norvegicus [20]": {"system": "Rattus norvegicus", "assay": "Tested for the effect on 8-OH-DPAT-induced lower lip retraction (LLR) in rat at dosage of 16 mg/kg", "type": "functional"}, "Rattus norvegicus [21]": {"system": "Rattus norvegicus", "assay": "Tested for the effect on 8-OH-DPAT-induced lower lip retraction (LLR) in rat at dosage of 2 mg/kg", "type": "functional"}, "Rattus norvegicus [22]": {"system": "Rattus norvegicus", "assay": "Tested for the effect on 8-OH-DPAT-induced lower lip retraction (LLR) in rat at dosage of 4 mg/kg", "type": "functional"}, "Rattus norvegicus [23]": {"system": "Rattus norvegicus", "assay": "Tested for the effect on 8-OH-DPAT-induced lower lip retraction (LLR) in rat at dosage of 8 mg/kg", "type": "functional"}, "Rattus norvegicus [24]": {"system": "Rattus norvegicus", "assay": "Tested for the induction of lower lip retraction (LLR) by the investigated compounds in rat at dosage of 16 mg/kg", "type": "functional"}, "Rattus norvegicus [25]": {"system": "Rattus norvegicus", "assay": "Tested for the induction of lower lip retraction (LLR) by the investigated compounds in rat at dosage of 2 mg/kg", "type": "functional"}, "Rattus norvegicus [26]": {"system": "Rattus norvegicus", "assay": "Tested for the induction of lower lip retraction (LLR) by the investigated compounds in rat at dosage of 4 mg/kg", "type": "functional"}, "Rattus norvegicus [27]": {"system": "Rattus norvegicus", "assay": "Tested for the induction of lower lip retraction (LLR) by the investigated compounds in rat at dosage of 8 mg/kg", "type": "functional"}, "Rattus norvegicus [28]": {"species_on_record": "Rattus norvegicus", "assay": "Selectivity is the ratio between Ki values of 5-HT2 and 5-HT1A"}, "Rattus norvegicus [29]": {"system": "Rattus norvegicus", "assay": "Tested for the effect on 8-OH-DPAT-induced behavior in reserpine pretreated rat against forepaw treading at dosage of 4 mg/kg", "type": "functional"}}, "data": [{"compound": "COc1ccccc1N1CCN(CCCCn2nnc3ccccc32)CC1", "values": [{"measurement": "Ki", "setting": "[1]", "value": 17, "unit": "nM"}, {"measurement": "Ki", "setting": "[2]", "value": 160, "unit": "nM"}, {"measurement": "Delta t", "setting": "Mus musculus [3]", "value": 4.2, "unit": "°C"}, {"measurement": "Delta t", "setting": "Mus musculus [4]", "value": 3.8, "unit": "°C"}, {"measurement": "Delta t", "setting": "Mus musculus [5]", "value": 3.2, "unit": "°C"}, {"measurement": "Delta t", "setting": "Mus musculus [6]", "value": 3.9, "unit": "°C"}, {"measurement": "Delta t", "setting": "Mus musculus [7]", "value": 4.1, "unit": "°C"}, {"measurement": "Delta t", "setting": "Mus musculus [8]", "value": 3.5, "unit": "°C"}, {"measurement": "Delta t", "setting": "Mus musculus [9]", "value": 2.7, "unit": "°C"}, {"measurement": "Delta t", "setting": "Mus musculus [10]", "value": 5.3, "unit": "°C"}, {"measurement": "Delta t", "setting": "Mus musculus [11]", "value": 5.6, "unit": "°C"}, {"measurement": "Delta t", "setting": "Mus musculus [12]", "value": 5.6, "unit": "°C"}, {"measurement": "Delta t", "setting": "Mus musculus [13]", "value": 5.2, "unit": "°C"}, {"measurement": "Delta t", "setting": "Mus musculus [14]", "value": 3.9, "unit": "°C"}, {"measurement": "Behavioral score", "setting": "Rattus norvegicus [15]", "value": 12.7}, {"measurement": "Behavioral score", "setting": "Rattus norvegicus [16]", "value": 11}, {"measurement": "Behavioral score", "setting": "Rattus norvegicus [17]", "value": 8.2}, {"measurement": "Behavioral score", "setting": "Rattus norvegicus [18]", "value": 6.1}, {"measurement": "Behavioral score", "setting": "Rattus norvegicus [19]", "value": 3.6}, {"measurement": "LLR score", "setting": "Rattus norvegicus [20]", "value": 2.4}, {"measurement": "LLR score", "setting": "Rattus norvegicus [21]", "value": 2.2}, {"measurement": "LLR score", "setting": "Rattus norvegicus [22]", "value": 2.1}, {"measurement": "LLR score", "setting": "Rattus norvegicus [23]", "value": 1.9}, {"measurement": "LLR score", "setting": "Rattus norvegicus [24]", "value": 0.7}, {"measurement": "LLR score", "setting": "Rattus norvegicus [25]", "value": 0.2}, {"measurement": "LLR score", "setting": "Rattus norvegicus [26]", "value": 0.3}, {"measurement": "LLR score", "setting": "Rattus norvegicus [27]", "value": 0.1}, {"measurement": "Selectivity", "setting": "Rattus norvegicus [28]", "value": 9.4}, {"measurement": "Behavioral score", "setting": "Rattus norvegicus [29]", "value": 10.3}]}]}
